Earlier results in patent US6352979B1, “Method of treating snakebite and complications resulting therefrom” (priority 2001, dated 2002).

How the values were obtained:
dogs = settings: doses higher than 3750 mg/kg (accepted oral LD50 for common table salt)
mice = settings: doses higher than 3750 mg/kg (accepted oral LD50 for common table salt)
humans = settings: doses exceeding 40 g/m^2

SMILES: O=S(=O)([O-])CCSSCCS(=O)(=O)[O-].[Na+].[Na+] [Dimesna, disodium 2,2′-dithiobis ethane sulfonate]
- adverse effects after intravenous administration (dogs): no adverse effects
- adverse effects after intravenous administration (mice): no adverse effects
- adverse effects after administration to humans (humans): no adverse effects

SMILES: [Cl-].[Na+] [common table salt]
- accepted oral LD50: 3750 mg/kg
